# Reference: patent EP4670722A1, “PROPHYLACTIC OR AMELIORATING AGENT FOR CELL AGING” (Kyowa Pharma Chemical Co., Ltd., priority 2023, dated 2024)
# What was measured:
# GLS1 [1] = assay: GLS1 expression analysis (ELISA) in BV2; format: cell-based; conditions: mouse microglial cells (BV2), at least 200 µg/mL or more, 24 hours; effect increased from 200 to 1000 µg/mL; Fig. 12
# Method: Mouse microglial cells (BV2) were cultured in glutamine-containing DMEM. The cultured cells were collected by trypsin treatment. The collected cells were seeded in a 6-well plate at a cell density of 4 x 10^5 cells/well and cultured for 24 hours in a 37°C, 5% CO2 incubator. After culturing, glutamine-free DMEM containing the test sample (2'-FL and lactose) at 50 µg/mL, 200 µg/mL, or 1000 µg/mL was added, and cultured for 24 hours in a 37°C, 5% CO2 incubator. The culture supernatant was removed, the cells were washed twice with PBS, and 0.20 mL of RIPA buffer was added to extract total protein. Protein in each protein extract was quantified by the Bradford assay.
# Protein extracts were collected in the same manner as in [Example 10-1 B. Human gastric undifferentiated carcinoma cells (KKLS)], [Example 10-1 C. Mouse microglial cells (BV2)], [Example 10-1 D. Human gingival fibroblasts (Gin-1)], and [Example 10-1 E. Human umbilical vein endothelial cells (HUVEC)], respectively, except that a medium same as the above-mentioned medium but not containing the test sample was used instead of the medium containing the test sample, and protein in each protein extract was quantified by the Bradford assay.
# An ELISA method was performed using an antibody against GLS1 to measure the amount of GLS1 in the samples. […]
# GLS1 [2] = assay: GLS1 expression analysis (Western blot) in HEK293; format: cell-based; conditions: human embryonic kidney cells (HEK293), at least 200 µg/mL or more, 24 hours; effect increased from 200 to 1000 µg/mL; Fig. 12
# Method: Human embryonic kidney cells (HEK293) were cultured in DMEM containing 10% FBS. The cultured cells were collected by trypsin treatment. The collected cells were seeded in a 6-well plate, and when they reached 100% confluence, DMEM containing 2'-FL as a test sample at 50 µg/mL, 200 µg/mL, or 1000 µg/mL, and lactose at 50 µg/mL or 200 µg/mL was added, and cultured for 24 hours in a 37°C, 5% CO2 incubator. The culture supernatant was removed, the cells were washed twice with phosphate-buffered saline (PBS), and 0.20 mL of RIPA buffer (manufactured by Nacalai Tesque, Inc.) was added to extract total protein. Protein in each protein extract was quantified by the Bradford assay.
# Protein extracts were collected in the same manner as in [Example 10-1 A. Human embryonic kidney cells (HEK293)], except that DMEM not containing the test sample was used instead of DMEM containing the test sample, and protein in each protein extract was quantified by the Bradford assay.
# Western blot analysis was performed on each protein extract using an anti-GLS1 antibody and an anti-β-actin antibody. […] The intensity of color development was quantified using the open-source software 'ImageJ'. The relative value of the GLS1 amount relative to the β-actin amount when each test sample was added was calculated, with the GLS1 amount relative to the β-actin amount in the control set to 1. […]
smiles,measurement,setting,value
"C[C@@H]1O[C@@H](O[C@H]2[C@H](O[C@H]3[C@H](O)[C@@H](O)C(O)O[C@@H]3CO)O[C@H](CO)[C@H](O)[C@@H]2O)[C@@H](O)[C@H](O)[C@@H]1O (some centres unmarked) [2'-FL, 2'-fucosyllactose]",GLS1 expression,GLS1 [1],suppressed GLS1 expression
same,GLS1 expression,GLS1 [2],suppressed GLS1 expression
